# Source: publication PMC10052025 (Pharmaceutics, 2023)
# Read-outs that look alike come from different tables or passages of the source.
# Key:
# OATP1B1 [1] = molecular target: T1, OATP1B1 (Homo sapiens, UniProt Q9Y6L6); design: FLAG; expressed in transfected cells; details: cited from earlier work
# T1 sequence (Q9Y6L6 1-691): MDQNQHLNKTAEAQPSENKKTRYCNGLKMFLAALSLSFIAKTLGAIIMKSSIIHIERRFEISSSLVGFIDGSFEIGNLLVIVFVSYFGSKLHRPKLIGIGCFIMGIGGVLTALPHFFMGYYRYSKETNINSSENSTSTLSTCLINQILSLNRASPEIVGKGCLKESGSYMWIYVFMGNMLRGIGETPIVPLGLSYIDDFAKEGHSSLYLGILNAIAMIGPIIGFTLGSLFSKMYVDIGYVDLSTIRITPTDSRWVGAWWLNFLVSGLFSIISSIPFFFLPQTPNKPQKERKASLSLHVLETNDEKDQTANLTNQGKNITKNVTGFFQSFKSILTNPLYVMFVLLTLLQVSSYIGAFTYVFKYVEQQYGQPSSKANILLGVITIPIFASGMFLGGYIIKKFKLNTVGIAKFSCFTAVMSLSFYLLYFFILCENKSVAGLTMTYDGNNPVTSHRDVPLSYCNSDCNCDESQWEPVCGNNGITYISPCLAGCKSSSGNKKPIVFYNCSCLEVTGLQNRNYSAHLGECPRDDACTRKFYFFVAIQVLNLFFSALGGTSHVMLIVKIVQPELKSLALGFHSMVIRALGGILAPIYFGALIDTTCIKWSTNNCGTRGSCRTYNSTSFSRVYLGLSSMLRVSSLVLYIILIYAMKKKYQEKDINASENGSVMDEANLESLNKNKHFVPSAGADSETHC
# [2] = tested on: OATP1B1 c. 521CC genotype; details: subjects with OATP1B1 c. 521CC genotype; cited from earlier work
# OATP1B1/3 = details: humans, cited from earlier work
# OATP1B1 [3] = molecular target: T1, OATP1B1; test: cell-based; details: for OATP1B1-mediated transport after preincubation: washed, substrate without inhibitor; for IC50: [3H]-E217βG 1 µM, 2 min
# Procedure: (§1) HEK293 stable cell lines expressing FLAG-tagged OATP1B1 (HEK293-FLAG-OATP1B1) or FLAG-tagged OATP1B3 (HEK293-FLAG-OATP1B3) have been published previously. Both HEK293 stable cell lines were cultured in DMEM culture media supplemented with 9% FBS (abbreviated as FBS–DMEM), antibiotic antimycotic, and 600 µg/mL G418 as published previously.
# (§2) HEK293-FLAG-OATP1B1 and HEK293-FLAG-OATP1B3 cells (less than 40 passages) were seeded in poly-L-lysine coated 24-well plates at a density of 1.5 × 10^5 cells per well and allowed to grow for 48 h until confluent before the transport studies. [^3H]-E217βG (1 µM, 2 min) and [^3H]-CCK-8 (1 µM, 3 min) were used as substrates for OATP1B1 and OATP1B3 in HEK293-FLAG-OATP1B1 and HEK293-FLAG-OATP1B3 cells, respectively. […] After preincubation, cells were washed three times with HBSS buffer and incubated with HBSS buffer containing substrate, in the […] of vehicle control or inhibitor. […] At the end of substrate incubation, cells were washed three times with ice-cold HBSS buffer and lysed in PBS containing 0.5% Triton X-100. Liquid scintillation counting was determined and normalized to the protein concentration, after correcting for any nonspecific binding in the poly-L-lysine-coated blank plates, as published previously.
# (§3) (1) E=Bottom+Top−Bottom/(1+C/IC50) where E is the remaining substrate transport at a given inhibitor concentration (C).
# [4] = Maximum aqueous soluble concentration; format: physicochemical; details: aqueous solution (not further specified)
# [5] = human plasma; cited from earlier work
# OATP1B3 [6] = molecular target: T2, OATP1B3 (Homo sapiens, UniProt Q9NPD5)
# T2 sequence (Q9NPD5 1-702): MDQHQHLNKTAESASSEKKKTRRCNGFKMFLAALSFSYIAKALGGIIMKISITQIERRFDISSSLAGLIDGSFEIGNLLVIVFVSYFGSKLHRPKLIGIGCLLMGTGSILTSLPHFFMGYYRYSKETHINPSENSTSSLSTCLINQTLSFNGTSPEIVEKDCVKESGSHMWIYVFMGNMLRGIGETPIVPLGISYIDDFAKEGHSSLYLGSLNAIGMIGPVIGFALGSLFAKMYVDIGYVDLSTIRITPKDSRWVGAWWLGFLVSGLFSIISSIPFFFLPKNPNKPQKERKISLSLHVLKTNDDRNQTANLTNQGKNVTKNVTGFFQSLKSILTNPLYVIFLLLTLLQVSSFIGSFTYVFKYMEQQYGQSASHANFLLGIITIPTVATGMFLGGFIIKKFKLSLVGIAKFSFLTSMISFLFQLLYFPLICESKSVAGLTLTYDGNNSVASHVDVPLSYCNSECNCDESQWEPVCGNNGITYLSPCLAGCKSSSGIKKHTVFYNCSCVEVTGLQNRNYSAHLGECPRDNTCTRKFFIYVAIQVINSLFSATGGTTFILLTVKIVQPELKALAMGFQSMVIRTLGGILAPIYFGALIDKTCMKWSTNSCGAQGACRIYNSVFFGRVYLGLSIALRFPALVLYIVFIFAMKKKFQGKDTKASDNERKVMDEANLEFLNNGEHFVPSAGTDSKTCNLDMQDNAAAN
# Procedure: as §1, §2, §3
# OATP1B1 [7] = molecular target: T1, OATP1B1; test: Prediction of OATP1B1-mediated DDI using the static R-value model; design: FLAG; expressed in transfected cells; details: predicted AUC ratio
# Procedure: (§4) The R-value, which represents the predicted AUC ratio of the substrate drug in the presence versus absence of an inhibitor drug, was calculated based on Equation (2), following the US-FDA final guidance with the parameters summarized in Table 1.
# (§5) The fa is the fraction absorbed. […] Fg is the fraction that escaped gut metabolism (Fg). The ka is the absorption rate constant. […] Qh is the hepatic blood flow rate (1500 mL/min). RB is the blood-to-plasma concentration ratio. […] (3) Iin,max=Imax+faFg×ka×Dose/Qh×RB
# [8] = steady state, read-out: Cmax, plasma, cited from earlier work
# [9] = Nicardipine pharmacokinetic parameters for R-value determination; details: Estimated based on Equation (3)
# Procedure: The fa is the fraction absorbed. […] Fg is the fraction that escaped gut metabolism (Fg). The ka is the absorption rate constant. […] Qh is the hepatic blood flow rate (1500 mL/min) [32]. RB is the blood-to-plasma concentration ratio. […] RB of 0.63 was used as a worst-case scenario.
# OATP1B3 [10] = molecular target: T2, OATP1B3; test: Prediction of OATP1B3-mediated DDI using the static R-value model; design: FLAG; expressed in transfected cells; details: predicted AUC ratio
# Procedure: as §4, §5
# [11] = from co-incubation IC50, FBS-DMEM
# [12] = from pre + co-incubation IC50, FBS-DMEM
# [13] = from pre + co-incubation IC50, HBSS
smiles,measurement,setting,value
CCOC(=O)C1=C(COCCN)NC(C)=C(C(=O)OC)C1c1ccccc1Cl (stereo not drawn) [amlodipine],predicted DDI potential based on IC50 values against OATP1B1,OATP1B1 [1]; IC50 determined without inhibitor-preincubation step,no DDI potential
CC[C@H](C)C(=O)O[C@H]1C[C@H](O)C=C2C=C[C@H](C)[C@H](CC[C@@H](O)C[C@@H](O)CC(=O)O)[C@H]21 [pravastatin],"increased AUC, fold of the reference",[2],1.9 fold
"COC(=O)C1=C(C)NC(C)=C(C(=O)OCC(C)C)C1c1ccccc1[N+](=O)[O-] (stereo not drawn) [Nisoldipine, nisoldipine]",AUC Ratio,OATP1B1/3; AUC of telmisartan on coadministration,2.32
COC(=O)C1=C(C)NC(C)=C(C(=O)OCCN(C)Cc2ccccc2)C1c1cccc([N+](=O)[O-])c1 (stereo not drawn) [nicardipine],effect of preincubation on OATP1B1-mediated transport,"OATP1B1 [3]; 0.5 µM, 10 min preincubation in HBSS buffer",no effect
same,OATP1B1-mediated transport after preincubation,"OATP1B1 [3]; 0.5 µM, 30 min preincubation in HBSS buffer",0.78 ± 0.04 fold of the control
same,OATP1B1-mediated transport after preincubation,"OATP1B1 [3]; 0.5 µM, 1 h preincubation in HBSS buffer",0.82 ± 0.04 fold of the control
same,effect of preincubation on OATP1B1-mediated transport,"OATP1B1 [3]; 0.5 µM, any preincubation duration (10 min–1 h) in FBS-containing medium",no effect
same,effect of preincubation on OATP1B1-mediated transport,"OATP1B1 [3]; 2 and 4 µM, HBSS buffer and FBS-containing medium, all preincubation time points",significantly reduced
same,IC50,"OATP1B1 [3]; IC50, Co-incubation only (no preincubation), FBS-DMEM row",2800 ± 2440 nM
same,IC50,"OATP1B1 [3]; IC50, Co-incubation only (no preincubation), HBSS row",3550 ± 2460 nM
same,IC50,"OATP1B1 [3]; IC50, Pre + co-incubation, 30 min preincubation in FBS-DMEM (9% FBS)",1570 ± 1400 nM
same,IC50,"OATP1B1 [3]; IC50, Pre + co-incubation, 30 min preincubation in protein-free HBSS buffer",980 ± 260 nM
same,solubility,[4],4 µM
same,fu (Fraction unbound in the plasma),[5],0.05 [29]
same,effect of preincubation on OATP1B3-mediated transport,"OATP1B3 [6]; 0.5 µM, any treatment condition",did not significantly affect
same,effect of preincubation on OATP1B3-mediated transport,"OATP1B3 [6]; FBS-containing medium, 4 µM for 30 min and 2 or 4 µM for 1 h","small, yet significant, reductions"
same,R (20 mg),OATP1B1 [7]; [11],1.1
same,R (20 mg),"OATP1B1 [7]; from co-incubation IC50, HBSS",1.1
same,R (20 mg),OATP1B1 [7]; [12],1.1
same,R (20 mg),OATP1B1 [7]; [13],1.2
same,R (30 mg),OATP1B1 [7]; [11],1.1
same,R (30 mg),"OATP1B1 [7]; from co-incubation IC50, HBSS",1.1
same,R (30 mg),OATP1B1 [7]; [12],1.2
same,R (30 mg),OATP1B1 [7]; [13],1.3
same,R (40 mg),OATP1B1 [7]; [11],1.2
same,R (40 mg),"OATP1B1 [7]; from co-incubation IC50, HBSS",1.1
same,R (40 mg),OATP1B1 [7]; [12],1.3
same,R (40 mg),OATP1B1 [7]; [13],1.4
same,Cmax,[8]; 20 mg 3 times a day,70 nM
same,Cmax,[8]; 30 mg 3 times a day,170 nM
same,Cmax,[8]; 40 mg 3 times a day,260 nM
same,"Iin, max (estimated total maximum plasma concentration at the inlet to the liver)",[9],8.46 µM
same,inhibition of OATP1B1-mediated transport,OATP1B1 [1]; 20 µM,65%
same,R (20 mg),OATP1B3 [10]; [11],1.0
same,R (20 mg),"OATP1B3 [10]; from co-incubation IC50, HBSS",1.0
same,R (20 mg),OATP1B3 [10]; [13],1.1
same,R (30 mg),"OATP1B3 [10]; from co-incubation IC50, HBSS",1.0
same,R (30 mg),OATP1B3 [10]; [13],1.2
same,R (40 mg),"OATP1B3 [10]; from co-incubation IC50, HBSS",1.0
same,R (40 mg),OATP1B3 [10]; [13],1.3
"COCC(=O)O[C@]1(CCN(C)CCCc2nc3ccccc3[nH]2)CCc2cc(F)ccc2[C@@H]1C(C)C [Mibefradil, mibefradil]",AUC Ratio,"OATP1B1/3; AUC of atorvastatin on coadministration, ref 10 in text, ref 8 in Table 3",4.43
same,AUC Ratio,OATP1B1/3; AUC of pravastatin on coadministration of mibefradil,1.32
